Reference: PMC11754874, “Novel inhibitors of the (VIBVN) NAT protein identified through pharmacophore modeling” (Scientific Reports, 2025)
pIC50: −log10 of the molar value.

Target: (VIBVN)NAT (arylamine N-acetyltransferase)
Assay: DTNB assay of AcCoA-dependent acetylation, absorbance at […] nm
Assay type: biochemical, Vibrio vulnificus

CCCS(=O)(=O)c1c(S(=O)(=O)CCC)c2ccccn2c1C(=O)N/N=C/c1cc(OC)ccc1O [AG-205-36710025]
pIC50: 4.48
